Structures can show the parent of a compound that is named as a salt.

What all share (assay type): cell-based
Experiment [1] deals with Pseudomonas spec. DSM 115322. Description: Study of the synergistic interaction: minimum inhibitory concentrations (MICs) and synergy index in Müller-Hinton broth, microplates. The settings on record: 48 hours at 30° C.; for Synergy index Qa/QA + Qb/QB: sole agent. On the procedure:
The test organism used was a Gram-negative bacterial species from the group of pseudomonads, Pseudomonas spec. DSM 115322. For this purpose, mixtures with different concentrations of the respective actives were prepared and tested for their effect on pseudomonads. The test was run in Müller-Hinton broth MHB with a cell density of 10^6 microbes per ml. The incubation was run in microplates at 30° C. for 48 hours. After 48 hours, the batches were evaluated for turbidity resulting from growth, and optical density was additionally determined photometrically. In this way, the minimum inhibitory concentrations (MICs) of the two actives were determined individually and in combination. The synergism that occurred was represented numerically by calculating the synergy index (SI). The calculation was done according to the standard method of F. C. Kull et al., Applied Microbiology, vol. 9 (1961), p. 538. This involves calculating the synergy index (SI) by the following formula: […] Calculation of the synergy index of guanidine and BIT with respect to Pseudomonas spec.

The test system of experiment [2] is Bacteria mixture (Pseudomonas spp. DSM 33933, Pseudomonas aeruginosa DSM 33935, Pseudomonas oleovorans DSM 33936, Pseudomonas spec. DSM 33937, Pseudomonas …). Description: Stability of emulsion paint against microbial infestation, inoculated with bacteria mixture, semiquantitative streak evaluation. The settings on record: for Bacterial growth Day 1: directly after inoculation; for Bacterial growth Day 6: incubation at 30° C. Also noted: key: 0: No growth; Minimal growth, 1 to 10 colonies visible over the entire streak; 2: Light growth, maximum 100 colonies; Moderate growth, maximum 300 to 400 colonies; Uniform growth, >400 colonies, single colonies still clearly recognizable; 5: Heavy growth, too many colonies to count, but no growth over the entire streak; 6: Full growth, barely any single colonies still apparent, growth over the entire streak. How it is done: The detergent was a heavy-duty laundry detergent without preservatives (pH 8.1), and the cleaning composition was an all-purpose detergent without preservatives (pH 7.6), each likewise made in the laboratory, without addition of the otherwise usual conventional preservatives. To each paint was added—individually and in combination—particular concentrations of guanidinium hydrochloride and benzisothiazolinone (BIT). The detergent and cleaning composition were admixed with particular concentrations of guanidinium hydrochloride and benzisothiazolinone (BIT). The resultant batches of the paint thus prepared were inoculated with a mixture of various bacteria; the batches of the detergent and cleaning composition thus prepared were inoculated with a yeast mixture. • Pseudomonas spp. (Pseudomonas oleovorans group) DSM 33933 • Pseudomonas aeruginosa DSM 33935 • Pseudomonas oleovorans DSM 33936 • Pseudomonas spec. DSM 33937 • Pseudomonas aeruginosa DSM 33938 The inoculum was added to the respective sample in each inoculation at 2% (v/w) as a fresh cell suspension in a physiological saline solution (0.9% NaCl). The cell count of the inoculum added was 10^9/ml for the bacteria mixture, 10^8/ml for the yeast mixture, consisting in equal parts of the individual bacteria strains or yeast strains. The cell suspension of the bacteria mixture was produced by growing the individual bacteria at 30° C. for 24 h in liquid culture on a shaker. The growth medium used for the bacteria was Müller-Hinton liquid medium. After growing, the individual liquid cultures were centrifuged, and the cells were resuspended in physiological saline solution. In order to adjust the mixture to a total cell count of 10^9/ml, the individual bacteria suspensions, if necessary, were diluted accordingly before being combined with saline solution. The cell count of the inoculum was determined in each case by chamber counting. In examples 2 to 4, the samples were inoculated once with the respective cell suspensions (2% v/w) and the development of the bacteria or yeasts was followed by a semiquantitative evaluation method. In the inoculated samples, microbial infestation was evaluated in each case directly after inoculation on day 1 and on day 6 (emulsion paint) after incubation at 30° C. for a further 5 days, or on day 3 (detergent, cleaning composition) after incubation at 30° C. for a further 2 days. For this purpose, an aliquot was taken from each sample after homogenization using a sterile plastic inoculation loop (10 μl) and streaked evenly on agar plates (tryptic soy agar in the case of bacteria, Sabouraud glucose-agar in the case of yeasts). […] After incubation, the bacterial or yeast colonies that had grown on the agar plates were visually evaluated and quantified according to the following scheme: [table] […]

Experiment [3] has as its system Yeast mixture (Pichia manshurica DSM 12249, Rhodotorula mucilaginosa DSM 12248, Candida boidinii DSM 13622, Candida albicans DSM 1386). Description: Stability of heavy-duty laundry detergent against microbial infestation, inoculated with yeast mixture, semiquantitative streak evaluation. The conditions noted are these: for Yeast growth Day 1: directly after inoculation; for Yeast growth Day 3: incubation at 30° C. Also noted: key: 0: No growth; Minimal growth, 1 to 10 colonies visible over the entire streak; 2: Light growth, maximum 100 colonies; Moderate growth, maximum 300 to 400 colonies; Uniform growth, >400 colonies, single colonies still clearly recognizable; 5: Heavy growth, too many colonies to count, but no growth over the entire streak; 6: Full growth, barely any single colonies still apparent, growth over the entire streak. How it is done: (§1) The detergent was a heavy-duty laundry detergent without preservatives (pH 8.1), and the cleaning composition was an all-purpose detergent without preservatives (pH 7.6), each likewise made in the laboratory, without addition of the otherwise usual conventional preservatives. To each paint was added—individually and in combination—particular concentrations of guanidinium hydrochloride and benzisothiazolinone (BIT). The detergent and cleaning composition were admixed with particular concentrations of guanidinium hydrochloride and benzisothiazolinone (BIT). The resultant batches of the paint thus prepared were inoculated with a mixture of various bacteria; the batches of the detergent and cleaning composition thus prepared were inoculated with a yeast mixture. • Pichia manshurica DSM 12249 • Rhodotorula mucilaginosa DSM 12248 • Candida boidinii DSM 13622 • Candida albicans DSM 1386 The inoculum was added to the respective sample in each inoculation at 2% (v/w) as a fresh cell suspension in a physiological saline solution (0.9% NaCl). The cell count of the inoculum added was 10^9/ml for the bacteria mixture, 10^8/ml for the yeast mixture, consisting in equal parts of the individual bacteria strains or yeast strains. The cell suspension of the yeast mixture was produced by growing the yeasts on Sabouraud glucose-agar at 25° C. for 48 hours and washing down the cell lawn with physiological saline solution (0.9% NaCl). Further steps for establishment of a cell count of the inoculum suspension of 10^8/ml were effected analogously to the production of the bacteria suspension. In examples 2 to 4, the samples were inoculated once with the respective cell suspensions (2% v/w) and the development of the bacteria or yeasts was followed by a semiquantitative evaluation method. In the inoculated samples, microbial infestation was evaluated in each case directly after inoculation on day 1 and on day 6 (emulsion paint) after incubation at 30° C. for a further 5 days, or on day 3 (detergent, cleaning composition) after incubation at 30° C. for a further 2 days. For this purpose, an aliquot was taken from each sample after homogenization using a sterile plastic inoculation loop (10 μl) and streaked evenly on agar plates (tryptic soy agar in the case of bacteria, Sabouraud glucose-agar in the case of yeasts). The streaked agar plates were then incubated at 30° C. for 48 hours (bacteria) or at 25° C. for 72 hours (yeasts). After incubation, the bacterial or yeast colonies that had grown on the agar plates were visually evaluated and quantified according to the following scheme: [table] Inoculation 2% w/v with a East Mixture, Cell Count 10^8/ml

The test system is the same in experiment [4]. Description: Stability of all-purpose detergent (cleaning composition) against microbial infestation, inoculated with yeast mixture, semiquantitative streak evaluation. The settings on record: for Yeast growth Day 1: directly after inoculation; for Yeast growth Day 3: incubation at 30° C. Also noted: key to Yeast growth Day 1: 0: No growth; Minimal growth, 1 to 10 colonies visible over the entire streak; 2: Light growth, maximum 100 colonies; Moderate growth, maximum 300 to 400 colonies; Uniform growth, >400 colonies, single colonies still clearly recognizable; 5: Heavy growth, too many colonies to count, but no growth over the entire streak; 6: Full growth, barely any single colonies still apparent, growth over the entire streak. On the procedure: as §1, with “(w/v)” for “w/v”, “Yeast” for “a East”

[5] abbreviates: all-purpose detergent +100 ppm BIT.
[6] abbreviates: emulsion paint +6000 ppm guanidine hydrochloride (3708 ppm guanidine).
Setting [7] is: detergent +8000 ppm guanidine hydrochloride (4944 ppm guanidine).
[8] abbreviates: all-purpose detergent +8000 ppm guanidine hydrochloride (4944 ppm guanidine).

For the compound `O=c1[nH]sc2ccccc12` [BIT, 1,2-benzisothiazolin-3-one], the “Qb (BIT): concentration of BIT as the sole agent that shows an endpoint (QB, MIC)” value in experiment [1] (BIT alone (0 ppm guanidine), MHB, 10^6 microbes per ml) was determined as 300 ppm. Besides, the “Synergy index Qa/QA + Qb/QB” value in experiment [1] is given as 1.00. Besides, in experiment [2] (emulsion paint +500 ppm BIT), the “Bacterial growth Day 1” value is on record as 6 and the “Bacterial growth Day 6” value is on record as 6. For the same compound, in experiment [3] (detergent +100 ppm BIT), the “Yeast growth Day 1” value came out at 6 and the “Yeast growth Day 3” value is recorded as 4 (Uniform growth, >400 colonies, single colonies still clearly recognizable). Also, in experiment [4] (setting [5]), the “Yeast growth Day 1” value amounted to 6 and the “Yeast growth Day 3” value is 4 (Uniform growth, >400 colonies, single colonies still clearly recognizable).
Turning to `N=C(N)N` [guanidine], the “Qa (guanidine): concentration of guanidine as the sole agent that shows an endpoint (QA, MIC)” value in experiment [1] (guanidine alone (0 ppm BIT), added as guanidine hydrochloride, MHB) is 9269 ppm. In addition, in experiment [1], the “Synergy index Qa/QA + Qb/QB” value was found to be 1.00.
Take `N=C(N)N` [guanidine hydrochloride]: in experiment [2] (setting [6]), the “Bacterial growth Day 1” value was 6 and the “Bacterial growth Day 6” value worked out at 6. Further, in experiment [3] (setting [7]), the “Yeast growth Day 1” value is 6 and the “Yeast growth Day 3” value amounted to 6. For the same compound, in experiment [4] (setting [8]), the “Yeast growth Day 1” value was found to be 6 and the “Yeast growth Day 3” value is given as 4 (Uniform growth, >400 colonies, single colonies still clearly recognizable).
